In assay [1] the test system is GBM cell lines U251, LN229, and U87. Kind of assay: Live cell count of GBM cell lines treated with MGO and TTFields (Inovitro system). It is filed as cell-based. From the text:
At the experimental endpoint cells were visualized by microscopy, counted, and taken for protein or RNA extraction for further analysis.
GBM cell lines U251, LN229, and U87 were used in this Example. […] The Inovitro™ system was operated with low intensity (1-3 V/cm) and medium frequency (200 kHz) alternating electric fields, which have a selective antimitotic effect on cancer cells. […] In addition, the arrangement of alpha and gamma tubulin was visualised by immunofluorescence.
The results of each experiment are indicated as cell count (live cells).

Assay [2] relates to GBM cells. Kind of assay: Preliminary work: MGO-induced glycation and invasion of GBM cells. Format: cell-based. From the text: Glioblastoma (GBM) is a highly aggressive and invasive brain tumor.

Structures are written as SMILES.

As for `CC(=O)C=O` [MGO, methylglyoxal], the “proliferation of cells (cell count)” value in assay [1] (0.1 mM MGO alone, FIG. 2) is “increased proliferation”. For the same compound, the “effect of TTFields on proliferation of cells under MGO” value in assay [1] (0.1 mM MGO plus TTFields (200 kHz, 1-3 V/cm), FIG. 2) was “reduce the increased proliferation”. The “rate of apoptosis with additional TTFields” value in assay [1] (0.3 mM MGO over the entire period plus TTFields (200 kHz, 1-3 V/cm)) is on record as “enhanced”. The rate of apoptosis entry in assay [1] (0.3 mM MGO over the entire period, alone, FIGS. 3-4) is recorded as “increased rate of apoptosis”. In addition, in assay [1] (Example 2, experiments A-H: 0.1 or 0.3 mmol/L MGO, TTFields 24-72 h, U251, LN229, U87, FIGS. 5-12), the “combination effect of concomitant TTFields and MGO (live cell count)” value is given as “synergistic effect”. Further, the “glycation of cell surface proteins” value in assay [2] is reported as “induces glycation of cell surface proteins”. Also, the invasion / phenotype result in assay [2] (associated with MGO-induced glycation) was “increased invasion”.
